The results in this text go back to PubChem BioAssay AID1259407 (Chemical Carcinogenesis Research Information System (CCRIS), 2018).

This series relates to CCRIS mutagenicity, Ames/micronucleus/aberration tests. The experiment in a line: CCRIS mutagenicity studies.
[1] abbreviates: Test System: AMES SALMONELLA TYPHIMURIUM, Strain/Indicator: TA98, Metabolic Activation: NONE, Method: PREINCUBATION
Where [2] appears, read: Test System: AMES SALMONELLA TYPHIMURIUM, Strain/Indicator: TA100, Metabolic Activation: NONE, Method: FLUCTUATION TEST.
[3] abbreviates: Test System: AMES SALMONELLA TYPHIMURIUM, Strain/Indicator: TA100, Metabolic Activation: RAT, LIVER, S-9, AROCLOR 1254, Method: FLUCTUATION TEST.
The mark [4] stands for this setting: Test System: AMES SALMONELLA TYPHIMURIUM, Strain/Indicator: TA102, Metabolic Activation: NONE, Method: STANDARD PLATE.
The mark [5] stands for this setting: Test System: AMES SALMONELLA TYPHIMURIUM, Strain/Indicator: TA102, Metabolic Activation: RAT, LIVER, S-9, AROCLOR 1254, Method: STANDARD PLATE.
The mark [6] stands for this setting: Test System: AMES SALMONELLA TYPHIMURIUM, Strain/Indicator: TA98, Metabolic Activation: NONE, Method: STANDARD PLATE.
The mark [7] stands for this setting: Test System: AMES SALMONELLA TYPHIMURIUM, Strain/Indicator: TA98, Metabolic Activation: RAT, LIVER, S-9, AROCLOR 1254, Method: STANDARD PLATE.
Setting [8] is: Test System: AMES SALMONELLA TYPHIMURIUM, Strain/Indicator: TA100, Metabolic Activation: NONE, Method: STANDARD PLATE.
[9] abbreviates: Test System: AMES SALMONELLA TYPHIMURIUM, Strain/Indicator: TA100, Metabolic Activation: RAT, LIVER, S-9, AROCLOR 1254, Method: STANDARD PLATE.
Where [10] appears, read: Test System: AMES SALMONELLA TYPHIMURIUM, Strain/Indicator: TA1535, Metabolic Activation: RAT, LIVER, S-9, AROCLOR 1254, Method: STANDARD PLATE.
Setting [11] is: Test System: AMES SALMONELLA TYPHIMURIUM, Strain/Indicator: TA1535, Metabolic Activation: NONE, Method: STANDARD PLATE.
[12] abbreviates: Test System: AMES SALMONELLA TYPHIMURIUM, Strain/Indicator: TA1538, Metabolic Activation: NONE, Method: STANDARD PLATE.
The mark [13] stands for this setting: Test System: AMES SALMONELLA TYPHIMURIUM, Strain/Indicator: TA1538, Metabolic Activation: RAT, LIVER, S-9, AROCLOR 1254, Method: STANDARD PLATE.

The source made the active and inactive calls. How the calls were made is not given here.

Take `O=C(O)C(Br)(Br)Br`: the mutagenic call is “inactive; negative” (Test System: AMES SALMONELLA TYPHIMURIUM, Strain/Indicator: RSJ100, Metabolic Activation: NONE, Method: PREINCUBATION); “inactive; negative” (Test System: AMES SALMONELLA TYPHIMURIUM, Strain/Indicator: RSJ100, Metabolic Activation: RAT LIVER S-9, Method: PREINCUBATION); “inactive; negative” under setting [1]; “inactive; negative” (Test System: AMES SALMONELLA TYPHIMURIUM, Strain/Indicator: TA98, Metabolic Activation: RAT LIVER S-9, Method: PREINCUBATION); “active; positive” under setting [2]; “inactive; negative” (Test System: AMES SALMONELLA TYPHIMURIUM, Strain/Indicator: TA100, Metabolic Activation: NONE, Method: PREINCUBATION). Further, the mutagenic call runs as follows: (Test System: AMES SALMONELLA TYPHIMURIUM, Strain/Indicator: TA100, Metabolic Activation: RAT LIVER S-9, Method: PREINCUBATION) “inactive; negative”; under setting [3], “active; positive”.
Take `C[C@@]1(CO)[C@H](O)CC[C@@]2(C)[C@H]1CC[C@H]1C[C@@H]3C[C@@]12CC[C@]3(O)CO`: the mutagenic call was “active; positive” (End Point: In vitro chromosomal aberrations, Test System: Human (male) peripheral blood lymphocytes, Metabolic Activation: None); “active; positive; increased trend in all groups; effect depended on age and genetic stat” (End Point: In vitro micronucleus, Test System: Human (male) peripheral blood lymphocytes, Metabolic Activation: None); “inactive; negative” under setting [4]; “inactive; negative” under setting [5]; “active; positive” (Test System: MOUSE LYMPHOMA, Strain/Indicator: L5178Y (TK+/TK-), Metabolic Activation: NONE, Method: SUSPENSION/PLATE); “inactive; negative” (Test System: UDS RODENT HEPATOCYTES, Strain/Indicator: THY INCORP (NON-S-PHASE), Metabolic Activation: NONE, Method: AUTORADIOGRAPHY).
With `CN(C)c1ccc(/C=C/C(=O)c2ccccc2)cc1`, the mutagenic call runs as follows: under setting [6], “inactive; negative”; under setting [7], “inactive; negative”; under setting [8], “inactive; negative”; under setting [9], “inactive; negative”.
In the case of `CNC(=O)Oc1ccc(-c2ccccc2)cc1`, the mutagenic call is “inactive; negative” under setting [7] and “active; positive” under setting [10].
Consider `C=C1C(=O)O[C@@H]2[C@H]1CC[C@H](C)[C@@H]1C=CC(=O)[C@@]21C`, for which the mutagenic call is “inactive; negative” under setting [6], “inactive; negative” under setting [7], “inactive; negative” under setting [8] and “inactive; negative” under setting [9].
Regarding `N#CC(Cl)Br` (centres undefined), the mutagenic call is, setting by setting: under setting [6], “inactive; negative”; under setting [7], “inactive; negative”; under setting [2], “active; positive”; under setting [8], “inactive; negative”; under setting [3], “inactive; negative”; under setting [9], “active; positive”. Also, the mutagenic call was “active; positive” under setting [11] and “active; positive” under setting [10].
On to `COc1cc(O)c2c(=O)c(O)c(-c3ccc(O)c(O)c3)oc2c1`, for which the mutagenic call is, setting by setting: (Test System: AMES SALMONELLA TYPHIMURIUM, Strain/Indicator: TA97, Metabolic Activation: NONE, Method: STANDARD PLATE) “inactive; negative”; (Test System: AMES SALMONELLA TYPHIMURIUM, Strain/Indicator: TA97, Metabolic Activation: RAT, LIVER, S-9, AROCLOR 1254, Method: STANDARD PLATE) “active; positive”; under setting [6], “inactive; negative”; under setting [7], “active; positive”; under setting [8], “inactive; negative”; under setting [9], “inactive; negative”. For the same compound, the mutagenic call is, setting by setting: under setting [4], “inactive; negative”; under setting [5], “inactive; negative”; under setting [11], “inactive; negative”; under setting [10], “inactive; negative”; under setting [12], “inactive; negative”; under setting [13], “inactive; negative”.
`O=S(O)S(=O)(=O)O`: the mutagenic call (End Point: In vitro chromosomal aberration, Test System: Human lymphocytes, Metabolic Activation: None) was “active; positive (structural changes)”; the mutagenic call (End Point: In vitro micronucleus, Test System: Human lymphocytes, Metabolic Activation: None) is “active; positive”; the mutagenic call (End Point: In vivo micronucleus, Test System: Bone marrow cells, Species: Rat, Strain/Sex: Rattus norvegicus var. albino / Male, female, Route: Intraperitoneal) is “active; positive (structural changes)”; the mutagenic call (Test System: AMES SALMONELLA TYPHIMURIUM, Strain/Indicator: TA97, Metabolic Activation: NONE, Method: PREINCUBATION) is “inactive; negative”; the mutagenic call (Test System: AMES SALMONELLA TYPHIMURIUM, Strain/Indicator: TA97, Metabolic Activation: RAT, LIVER, S-9, AROCLOR 1254, Method: PREINCUBATION) was “inactive; negative”; the mutagenic call under setting [6] is “inactive; negative”. Also, the mutagenic call by setting is: under setting [7], “inactive; negative”; under setting [8], “inactive; negative”; under setting [9], “inactive; negative”; (Test System: AMES SALMONELLA TYPHIMURIUM, Strain/Indicator: TA102, Metabolic Activation: NONE, Method: PREINCUBATION) “inactive; negative”; (Test System: AMES SALMONELLA TYPHIMURIUM, Strain/Indicator: TA102, Metabolic Activation: RAT, LIVER, S-9, AROCLOR 1254, Method: PREINCUBATION) “inactive; negative”; under setting [11], “inactive; negative”. For the same compound, the mutagenic call is, setting by setting: under setting [10], “inactive; negative”; (Test System: AMES SALMONELLA TYPHIMURIUM, Strain/Indicator: TA1537, Metabolic Activation: NONE, Method: STANDARD PLATE) “inactive; negative”; (Test System: AMES SALMONELLA TYPHIMURIUM, Strain/Indicator: TA1537, Metabolic Activation: RAT, LIVER, S-9, AROCLOR 1254, Method: STANDARD PLATE) “inactive; negative”; under setting [12], “inactive; negative”; under setting [13], “inactive; negative”; (Test System: E. COLI, Strain/Indicator: WP2, Metabolic Activation: NONE, Method: STANDARD PLATE) “inactive; negative”. Moreover, the mutagenic call (Test System: E. COLI, Strain/Indicator: WP2, Metabolic Activation: RAT, LIVER, S-9, AROCLOR 1254, Method: STANDARD PLATE) is “inactive; negative”.
For the compound `CC(=O)O[C@H]1[C@@H]2CC(C)(C)CC2=C(C=O)[C@]2(C=O)C[C@]12C`, the mutagenic call was “inactive; negative” under setting [6]; “inactive; negative” under setting [8]; “inactive; negative” (Test System: AMES SALMONELLA TYPHIMURIUM, Strain/Indicator: TA2637, Metabolic Activation: NONE, Method: STANDARD PLATE).
With `O=C(O)c1cc([N+](=O)[O-])ccc1[N+](=O)[O-]`, the mutagenic call was “active; positive” under setting [1]; “active; positive” (Test System: AMES SALMONELLA TYPHIMURIUM, Strain/Indicator: TA98, Metabolic Activation: RAT, LIVER, S-9, KANECHLOR 500, Method: PREINCUBATION); “inactive; negative” (Test System: AMES SALMONELLA TYPHIMURIUM, Strain/Indicator: TA100, Metabolic Activation: RAT, LIVER, S-9, KANECHLOR 500, Method: PREINCUBATION).
